Data taken from ChEMBL document CHEMBL1155390, “Isolation and biological evaluation of 8-epi-malyngamide C from the Floridian marine cyanobacterium Lyngbya majuscula” (J Nat Prod, 2010).
Active and inactive are the calls of the source. No cut-off for these calls is given here.

Columns and labels:
Escherichia coli [1] = experiment: Antibacterial activity against Escherichia coli JM109 harboring pSB1075 assessed as cell density at 10 to 1000 uM after 6.5 hrs
HT-29 = experiment: Cytotoxicity against human HT-29 cells after 48 hrs MTT assay; format: functional, cell-based; details: HT-29, 48 h
Escherichia coli [2] = experiment: Inhibition of quorum sensing in Escherichia coli JM109 harboring pSB1075 assessed as suppression of LasR-mediated 3-oxo-C12-HSL signaling at 10 to 1000 uM after 6.5 hrs by reporter gene assay

CCCCCCC[C@@H](C/C=C/CCC(=O)NC/C(=C/Cl)[C@]12O[C@H]1[C@H](O)CCC2=O)OC
Activity (Escherichia coli [1]): inactive | IC50 (HT-29): 15.4 µM | Activity (Escherichia coli [2]): Active

CCCCCCC[C@@H](C/C=C/CCC(=O)NC/C(=C/Cl)[C@]12O[C@H]1[C@@H](O)CCC2=O)OC [MALYNGAMIDE C]
Activity (Escherichia coli [1]): inactive | IC50 (HT-29): 5.2 µM | Activity (Escherichia coli [2]): Active
